In patent publication US20220105058A1, “USE OF 3-O-SULFAMATE-16,16-DIMETHYL-D-HOMOEQUILENIN TO TREAT ONCOLOGICAL DISEASES” (priority 2018, published 2022):
Values joined by “and” are separate entries in the source; they are usually repeats but may differ in a detail not shown here. Equal entries are not always repeated. “Also recorded” adds a separate entry of the source. Where two headings read alike, the source gives them in different places. Marks after values point to notes of the source that are not given here.

Columns and labels:
[1] = tested on: Breast tumors (BT) in female FBV/N mice transgenic for HER-2/neu; test: antitumor activity in mice with HER-2/neu breast tumors; assay type: in vivo, FVB mice transgenic for HER-2/neu; settings: Tamoxifen 4 mg/kg
From the text: The age of animals at the beginning of the study was 21-41 weeks and weight was 25-30 g.
The control groups were given the olive oil (placebo).
TGI=(Vctrl−Vexp)/Vctrl×100(%),

[2] = body weight and tolerability during the antitumor study; settings: for average body weight of mice (M): Tamoxifen 4.0 mg/kg i.g. daily; for Body weight: Tamoxifen 4 mg/kg
Method: The study medicament was administered i.g. using a metal atraumatic gavage (with the procedure corresponds to the oral route of administration in clinical settings). The medicament was administered in a single daily dose (20 mg/kg of body weight) and 5-fold daily dose of 100 mg/kg of body weight. Ex tempore solutions of the medicament for administration were prepared in olive oil (refined olive oil supplemented with unrefined extra virgin olive oil available under Global Village “Clasico” trademark, lot L:183351116, expiry date 26 Apr. 2020, BAIEO, Spain). The administered volume was 0.1 ml per 10 g of a mouse body weight (0.2 ml of a ready-to-use formulation for a mouse of 20 g). The medicament administration was started 24 hours after the randomization. The duration of the administration course was 27-28 days.
This dose corresponds to a human daily dose of 20 mg/kg.
The evaluation criteria included the clinical observation data, animals body weights, time of death (if applicable), tumor growth over time, pathomorphological examination data (verification of a neoplasm during autopsy, assessment of toxic effects by macroscopic presentation of changes in the internal organs).
The animals body weights were recorded before the first administration of the medicaments and then twice per week using a verified high-speed electronic laboratory balance Ohaus Scout Pro (USA) with a maximum load of 2000 g and a measurement step of 0.1 g.

[3] = tested on: subcutaneous xenografts of human SKBR-3 breast cancer
Method: (§1) A comparative study of the medicaments in vivo was performed in female Balb/c nude mice with subcutaneously (s.c.) transplanted tumor cells. The experiment lasted for 29 days after the medicament administration for the first time (the administration of the medicaments was started on Day 5 after the tumor strain transplantation).
(§2) The medicament and the reference drug were administered intragastrically multiple times at doses of 30 mg/kg and 10 mg/kg daily for 21 days.
(§3) The placebo group was given 1% starch solution intragastrically in equivalent volumes and in the same regime. Tumor nodes were measured 2 times per week. […] Once the treatment was completed, the last tumor measurement was carried out, and animals were weighed and euthanized.
(§4) The animals were weighed on the first day of the experiment, and then 2 times per week throughout the experiment according to the research protocol.
(§5) A tumor node was measured after tumor transplantation 2 times per week throughout the experiment. The tumor node volume was determined by the formula:
(§6) V=π/6*L*W*H, where L, W, H are the linear size dimensions of the tumor.
(§7) Determination of Antitumor Activity
(§8) Tumor growth inhibition index (TGI) was used as a criterion for the study of the medicament efficacy and calculated by the formula as follows:
(§9) TGI (%)=|Vctrl−Vexp|/Vctrl*100
(§10) where Vctrl and Vexp are the average tumor volume (mm^3) in the control and in the experimental groups, respectively.
(§11) After the course of the treatment, the animals were euthanized by the cervical dislocation of cervical vertebrae.
(§12) The statistical data processing was conducted using SPSS 21 package (license No. 20130626-3). Descriptive statistics in the study includes the following: arithmetic average, standard deviation (SD), standard mean error (SE), median, quartiles, interquartile range. To compare quantitative characteristics in the groups, the Mann-Whitney-Wilcoxon test was used without corrections for multiple comparisons. The results were considered statistically significant at p<0.05.

[4] = tested on: subcutaneous xenografts of human TNBC-Kad breast cancer
Method: as §1, §2, §3, §4, §5, §6, §7, §8, §9, §10, §11, §12

CC/C(=C(\c1ccccc1)c1ccc(OCCN(C)C)cc1)c1ccccc1 [Tamoxifen]
Average volume of new tumors at the end of observation period (M) [1]: 0.20 cm^3
average total volume of tumors, % changes from baseline ([1]; 28 days): 338%
average volume of tumors, % changes from baseline ([1]; 28 days): 338%
TGI (average total tumor volume) ([1]; Day 0): 44%
TGI (average tumor volume) ([1]; Day 0): 24%
average total volume of tumors in mice (M) ([1]; Day 0): 1.26 cm^3
average volume of tumors (M) ([1]; Day 0): 0.29 cm^3
TGI (average total tumor volume) ([1]; Day 7): 33%
TGI (average tumor volume) ([1]; Day 7): 8%
average total volume of tumors in mice (M) ([1]; Day 7): 2.01 cm^3
average volume of tumors (M) ([1]; Day 7): 0.46 cm^3
TGI (average total tumor volume) ([1]; Day 14): 32%
TGI (average tumor volume) ([1]; Day 14): 7%
average total volume of tumors in mice (M) ([1]; Day 14): 2.84 cm^3
average volume of tumors (M) ([1]; Day 14): 0.65 cm^3
TGI (average total tumor volume) ([1]; Day 21): 36%
TGI (average tumor volume) ([1]; Day 21): 12%
average total volume of tumors in mice (M) ([1]; Day 21): 3.23 cm^3
average volume of tumors (M) ([1]; Day 21): 0.75 cm^3
TGI (average total tumor volume) ([1]; Day 28): 5%
TGI (average tumor volume) ([1]; Day 28): −31%
average total volume of tumors in mice (M) ([1]; Day 28): 5.52 cm^3
average volume of tumors (M) ([1]; Day 28): 1.27* cm^3
Total number of new tumors ([1]; end of experiment): 32
frequency of tumor stabilizations ([1]; end of observation): 3%
average body weight of mice (M) ([2]; Day 0): 31.0 g
average body weight of mice (M) ([2]; Day 7): 32.0 g
average body weight of mice (M) ([2]; Day 14): 32.9 g
average body weight of mice (M) ([2]; Day 21): 32.8 g
average body weight of mice (M) ([2]; Day 28): 34.2 g
Body weight ([2]; Day 28, All mice): 34.2 ± 1.4 g
Body weight ([2]; Day 28, estrus (E-9)): 34.2 ± 1.4 g
average tumor volume (M ± m) ([3]; Tamoxifen 10 mg/kg, Day 0): 0.7±0.1 mm^3
average tumor volume (M ± m) ([3]; Tamoxifen 10 mg/kg, Day 3): 1.0 ± 0.3 mm^3
SKBR-3 growth inhibition, TGI ([3]; Tamoxifen 10 mg/kg, Day 7): 63.9%
average tumor volume (M ± m) ([3]; Tamoxifen 10 mg/kg, Day 7): 7.2±3.9 mm^3
SKBR-3 growth inhibition, TGI ([3]; Tamoxifen 10 mg/kg, Day 10): 56.9%
average tumor volume (M ± m) ([3]; Tamoxifen 10 mg/kg, Day 10): 33.4±16.1 mm^3
SKBR-3 growth inhibition, TGI ([3]; Tamoxifen 10 mg/kg, Day 14): 60.6%
average tumor volume (M ± m) ([3]; Tamoxifen 10 mg/kg, Day 14): 47.5±16.8 mm^3
SKBR-3 growth inhibition, TGI ([3]; Tamoxifen 10 mg/kg, Day 17): 68.9%
average tumor volume (M ± m) ([3]; Tamoxifen 10 mg/kg, Day 17): 58.0±18.2 mm^3
SKBR-3 growth inhibition, TGI ([3]; Tamoxifen 10 mg/kg, Day 21): 45.4%
average tumor volume (M ± m) ([3]; Tamoxifen 10 mg/kg, Day 21): 145.5 ± 70.9 mm^3
SKBR-3 growth inhibition, TGI ([3]; Tamoxifen 10 mg/kg, Day 24): 9.5%
average tumor volume (M ± m) ([3]; Tamoxifen 10 mg/kg, Day 24): 211.1 ± 94.0 mm^3
average tumor volume (M ± m) ([3]; Tamoxifen 30 mg/kg, Day 0): 0.9±0.2 mm^3
average tumor volume (M ± m) ([3]; Tamoxifen 30 mg/kg, Day 3): 2.0 ± 0.4 mm^3
SKBR-3 growth inhibition, TGI ([3]; Tamoxifen 30 mg/kg, Day 7): 6.2%
average tumor volume (M ± m) ([3]; Tamoxifen 30 mg/kg, Day 7): 18.8±7.4 mm^3
SKBR-3 growth inhibition, TGI ([3]; Tamoxifen 30 mg/kg, Day 10): 12.6%
average tumor volume (M ± m) ([3]; Tamoxifen 30 mg/kg, Day 10): 67.6 ± 21.1 mm^3
SKBR-3 growth inhibition, TGI ([3]; Tamoxifen 30 mg/kg, Day 14): 2.9%
average tumor volume (M ± m) ([3]; Tamoxifen 30 mg/kg, Day 14): 117.1 ± 41.7 mm^3
SKBR-3 growth inhibition, TGI ([3]; Tamoxifen 30 mg/kg, Day 17): −17.1%
average tumor volume (M ± m) ([3]; Tamoxifen 30 mg/kg, Day 17): 218.3 ± 63.6 mm^3
SKBR-3 growth inhibition, TGI ([3]; Tamoxifen 30 mg/kg, Day 21): −44.2% and −44.4%
average tumor volume (M ± m) ([3]; Tamoxifen 30 mg/kg, Day 21): 384.8±103.2 mm^3
SKBR-3 growth inhibition, TGI ([3]; Tamoxifen 30 mg/kg, Day 24): −68.1%
average tumor volume (M ± m) ([3]; Tamoxifen 30 mg/kg, Day 24): 392.1 mm^3
antitumor efficacy ([3]; pilot experiment, Tamoxifen 10 mg/kg): not effective
effect on tumor growth ([3]; pilot experiment, Tamoxifen 10 mg/kg, Days 10 to 17): tumor growth stimulation was recorded
tumor growth inhibition over the entire observation period ([4]; Tamoxifen 10 mg/kg): no tumor growth inhibition was detected; also recorded: is not effective
average tumor volume (M ± m) ([4]; Tamoxifen 10 mg/kg, Day 0): 2.3±0.8 mm^3 and 2.33 ± 0.76 mm^3
average tumor volume (M ± m) ([4]; Tamoxifen 10 mg/kg, Day 3): 25.61 ± 5.56 mm^3
TNBC_Kad growth inhibition, TGI ([4]; Tamoxifen 10 mg/kg, Day 7): 0.5%
average tumor volume (M ± m) ([4]; Tamoxifen 10 mg/kg, Day 7): 79.17 ± 18.80 mm^3
TNBC_Kad growth inhibition, TGI ([4]; Tamoxifen 10 mg/kg, Day 10): −20.7%
average tumor volume (M ± m) ([4]; Tamoxifen 10 mg/kg, Day 10): 122.09 ± 27.84 mm^3
TNBC_Kad growth inhibition, TGI ([4]; Tamoxifen 10 mg/kg, Day 14): −18.4%
average tumor volume (M ± m) ([4]; Tamoxifen 10 mg/kg, Day 14): 193.24 ± 54.10 mm^3
TNBC_Kad growth inhibition, TGI ([4]; Tamoxifen 10 mg/kg, Day 17): −22.6%
average tumor volume (M ± m) ([4]; Tamoxifen 10 mg/kg, Day 17): 237.32 ± 77.07 mm^3
TNBC_Kad growth inhibition, TGI ([4]; Tamoxifen 10 mg/kg, Day 21): −7.9%
average tumor volume (M ± m) ([4]; Tamoxifen 10 mg/kg, Day 21): 322.76 ± 88.25 mm^3
average tumor volume (M ± m) ([4]; Tamoxifen 30 mg/kg, Day 0): 4.1±1.2 mm^3 and 4.14 ± 1.22 mm^3
average tumor volume (M ± m) ([4]; Tamoxifen 30 mg/kg, Day 3): 17.12 ± 4.12 mm^3
average tumor volume (M ± m) ([4]; Tamoxifen 30 mg/kg, Day 7): 44.1±8.8 mm^3 and 44.13 ± 8.81 mm^3
TNBC_Kad growth inhibition, TGI ([4]; Tamoxifen 30 mg/kg, Day 10): 39.4%
average tumor volume (M ± m) ([4]; Tamoxifen 30 mg/kg, Day 10): 61.37 ± 12.03 mm^3
TNBC_Kad growth inhibition, TGI ([4]; Tamoxifen 30 mg/kg, Day 14): 26.8%
average tumor volume (M ± m) ([4]; Tamoxifen 30 mg/kg, Day 14): 119.53 ± 18.54 mm^3
TNBC_Kad growth inhibition, TGI ([4]; Tamoxifen 30 mg/kg, Day 17): 26.7%
average tumor volume (M ± m) ([4]; Tamoxifen 30 mg/kg, Day 17): 141.85 ± 35.07 mm^3
TNBC_Kad growth inhibition, TGI ([4]; Tamoxifen 30 mg/kg, Day 21): 33.3%
average tumor volume (M ± m) ([4]; Tamoxifen 30 mg/kg, Day 21): 199.54 ± 43.55 mm^3
